What was measured:
[1] = tested on: ear swelling response induced by croton oil; assay: Irritant dermatitis mouse model (croton oil); type: in vivo, C57BL/6N male mice; details: i.p. 5 mg/kg 1 hr before, 3.2 mg/kg 1 hr and 3 hr after irritation; 7 hours and 24 hours
Experimental: In order to further test for antiinflammatory properties, an irritant dermatitis mouse model is used. Induction of an ear swelling response by croton oil is a toxic reaction. This response is a concentration-dependent phenomenon, independent of sensitized lymphocytes.
20 μl of 1% croton oil in acetone is applied on the left ear. Ear swelling is measured after 7 hours and 24 hours. Ear swelling is quantified with a springloaded micrometer. […] An additional group is treated with neramexane (as described above) and croton oil.
Sensitization results are analyzed using student test (comparison between treatment and positive control).

[2] = tested on: Staphylococcus aureus ATCC 6538; assay: MIC by the agar dilution method; type: cell-based; details: pH 5.5
Experimental: (§1) To assess the anti-microbial potency of Neramexane against bacteria strains which are relevant for atopic dermatitis and localized skin infections (“impetigo”), the minimal inhibitory concentration (MIC) against the following bacteria is established:
(§2) The MICs of the samples are determined using the agar dilution method based on DIN 58940. Petri dishes of 5.5 cm diameter are poured with 2.5 ml of freshly prepared Mueller-Hinton agar 2-fold concentrated (Merck company, Cat-No 1.05437), pH 5.5, maintained in liquid form at 50° C., to which the sample dilutions at various concentrations has been added at 50.0 vol.-%.
(§3) Neramexane-Mesylate is tested in the concentration range of 6.25-1*10^−2%. All test solutions are adjusted to pH 5.5.
(§4) For inoculation, 1 μl of the respective germ suspension is placed on the centre of each agar plate. After drying, inoculated plates are incubated at 36.0±2.0° C. The basis for the length of incubation period is the respective growth control cultivated in parallel.
(§5) The test microbe suspension is prepared by inoculating a few individual colonies of the respective bacteria into sterile saline solution until a turbidity corresponding to the McFarland standard 1.0 (approximately 10^8 cfu/ml) is reached. After that, the test microbe suspensions are further diluted 1:10 with saline solution and the microbial counts (see Table 33) are determined by the surface spread method using a spiral plater.
(§6) The agar plates are incubated under the conditions given in Table 34 and subsequently evaluated. The MIC-values as given represent the lowest concentration of the active substance at which there is no macroscopically visible growth. Minimal, barely visible growth or few small individual colonies are evaluated as inhibition.
(§7) The growth of bacteria is indicated for the duplicate plates by a +(i.e., growth) or a −(i.e., no growth), +− indicates weak growth on both plates or growth on one plate and no growth on the other plate. Both bacteria-strains show appropriate growth on the respective control plate not containing any test compound. No influence of the used diluent (Aqua purifacata) is observed. No contamination is observed on the control-plates. In general it has to be considered that values determined by the used method can vary by a factor of 2 (for 1:2 dilutions).

[3] = tested on: Streptococcus pyogenes ATCC 12344; assay: MIC by the agar dilution method; type: cell-based; details: pH 5.5, compared with Staphylococcus aureus
Experimental: as §1, §2, §3, §4, §5, §6, §7

Propionibacterium acnes = assay: Log reduction assay; type: cell-based; details: log reduction experiment
Experimental: In order to determine the efficacy of Neramexane against a specific microorganism population (i.e., Propionibacterium acnes), a log reduction assay is performed. The organisms are prepared by inoculating the fluid thioglycolate (FTM). The microorganism is then incubated at 35.2±2.5° C. for 24 hours. The microbial suspension is adjusted to approximately 107 to 108 colony forming units (CFU) per mL and labeled as the stock suspension. […] Then […] is transferred into 11 mL of DI water to prepare a 3.125% solution. This solution is then inoculated with the microorganism and tested at time intervals of 30 seconds, 1 minute, and 5 minutes. One milliliter from each dilution is spread plated in duplicate onto tryptic soy agar with 5% sheep blood. The plates are incubated anaerobically at 35.2±2.5° C. for a minimum of 48 hours. The same procedure is repeated for the Phosphate Buffer Saline control. After the incubation period, all plates are counted to determine the number of microorganisms remaining at each time point. The concentration of each microorganism for the control and product is calculated for each interval. The log reduction is calculated to determine the change (reduction or increase) of the microorganism population relative to a starting inoculum. The minimum required bactericidal concentration is defined as a 3 log reduction from the initial inoculum.

[4] = tested on: DNFB-induced contact hypersensitivity (ear swelling response); assay: Contact hypersensitivity (CHS) mouse model; details: i.p. 5 mg/kg 1 hr before
[5] = tested on: Propionibacterium granulosum ATCC 11829; assay: MIC and MBC by the agar dilution method; type: cell-based; details: pH 5.5
Experimental: (§8) To assess the anti-microbial potency of Neramexane against acne relevant bacterias the minimal inhibitory concentration (MIC) and minimal bactericidal concentration (MBC) against the following bacterias is established: The MICs of the samples are determined using the agar dilution method based on DIN 58940. Petri dishes of 5.5 cm diameter are poured with 2.5 ml of freshly prepared Mueller-Hinton agar (Merck company, Cat-No 1.05437) or Wilkins-Chalgren-Agar (Oxoid company, Cat-No CM643), maintained in liquid form at 50° C., to which the sample dilutions at various concentrations have been added at 50.0 vol.-%. To prepare the starting sample dilutions, a 12.5%, 3.12% suspension of the respective sample solution is prepared with Aqua purificata. From these stock-solutions, further dilutions are prepared with Aqua purificata. All test compounds are adjusted to pH 5.5. For test product no. 1, separate dilutions adjusted to pH 6.0 and pH 7.4 are also prepared. For inoculation, 1 μl of the respective germ suspension is placed on the centre of each agar plate. After drying, inoculated plates are incubated at 36.0±2.0° C. The basis for the length of incubation period is the respective growth control cultivated in parallel. The test microbe suspension is prepared by inoculating a few individual colonies of the respective bacteria into sterile saline solution until a turbidity corresponding to the McFarland standard 1.0 (approximately 10^8 cfu/ml) is reached. After that, the test microbe suspensions are further diluted 1:10 with saline solution and the microbial counts (see Table 21) are determined by the surface spread method using a spiral plater. The agar plates are incubated under the conditions given in Table 22 and subsequently evaluated. The MIC-values as given represent the lowest concentration of the active substance at which there is no macroscopically visible growth. Minimal, barely visible growth or few small individual colonies are evaluated as inhibition. [table] All negative tests of the determination of the minimal bactericial concentration are the basis of verification of remaining germs, the inoculated agar segments are cut and put in Mueller-Hinton-Bouillon (germ 1) or Wilkins-Chalgren-Bouillon (germs 2-4). After an adequate incubation period at 36.0±2.0° C. (as judged from a control without test compound), the tests are checked manually on microbial growth (=turbidity) and the minimal bactericidal concentration is determined. MBC indicates the concentration without marked turbidity. Grown germs are checked for identity to rule out unspecific contaminations. The following results are summarized and tabulated: • a) Results of the Minimal Inhibitory Concentration (MIC)* • b) Results of the Minimal Bactericidal Concentration (MBC) *The MIC is the concentration without macroscopical growth. Scarcely apparent, minimum growth or few single colonies are not considered. The controls must have a respectively good developed growth. There must be no growth on the agar plates for the sterile control. The growth of bacteria is indicated for the duplicate plates by a +(i.e., growth) or a −(i.e., no growth), +− indicates weak growth on both plates or growth on one plate and no growth on the other plate. All bacteria show appropriate growth on the respective control plate not containing any test compound. No influence of the used diluent (Aqua purifacata) was observed. No contamination is observed on the control-plates.

[6] = tested on: Staphylococcus epidermidis ATCC 12228; assay: MIC and MBC by the agar dilution method; type: cell-based; details: pH 5.5
Experimental: as §8

[7] = tested on: Propionibacterium avidum ATCC 25577; assay: MIC and MBC by the agar dilution method; type: cell-based; details: pH 5.5
Experimental: as §8

[8] = tested on: Propionibacterium acnes ATCC 11828; assay: MIC and MBC by the agar dilution method; type: cell-based; details: pH 5.5
Experimental: as §8

[9] = final concentration 0.002 % (Neramexane-HCl)
[10] = final concentration 0.005 % (Neramexane-HCl)
[11] = final concentration 0.01 % (Neramexane-HCl)
[12] = final concentration 0.02 % (Neramexane-HCl)
[13] = final concentration 0.04 % (Neramexane-HCl)
[14] = final concentration 0.08 % (Neramexane-HCl)
[15] = final concentration 0.16 % (Neramexane-HCl)
[16] = final concentration 0.31 % (Neramexane-HCl)
[17] = final concentration 0.63 % (Neramexane-HCl)
[18] = final concentration 1.56 % (Neramexane-HCl)

## CC1(C)CC(C)(C)CC(C)(N)C1 [Neramexane, 1-amino-1,3,3,5,5-pentamethylcyclohexane]
[1]
  ear swelling response induced by croton oil: reduces the ear swelling response induced by croton oil to some degree
[2]
  antibacterial activity: exhibits antibacterial activity with respect to Staphylococcus aureus
[3]
  antibacterial activity: acts even to greater extend against Streptococcus pyogenes
Propionibacterium acnes
  antibacterial activity: exhibits antibacterial activity against Propionibacterium acnes
[4]; 3.2 mg/kg 1 hr and 3 hr after challenge, 24 hours after elicitation
  ear swelling response: significantly reduces ear swelling response
[4]; 3.2 mg/kg 1 hr and 3 hr after sensitization
  induction of an immune response (sensitization): does not appear to have an impact on the induction of an immune response

## CC1(C)CC(C)(C)CC(C)(N)C1.Cl [Neramexane-HCl]
[5]; [9]
  growth of bacteria on duplicate plates (MIC determination): + +
[5]; [10]
  growth of bacteria on duplicate plates (MIC determination): + +
[5]; [11]
  growth of bacteria on duplicate plates (MIC determination): + +
[5]; [12]
  growth of bacteria on duplicate plates (MIC determination): + +
[5]; [13]
  growth of bacteria on duplicate plates (MIC determination): + +
[5]; [14]
  growth of bacteria (MBC determination): + +
  growth of bacteria on duplicate plates (MIC determination): − −
[5]; [15]
  growth of bacteria (MBC determination): + +
  growth of bacteria on duplicate plates (MIC determination): − −
[5]; [16]
  growth of bacteria (MBC determination): + +
  growth of bacteria on duplicate plates (MIC determination): − −
[5]; [17]
  growth of bacteria (MBC determination): − −
  growth of bacteria on duplicate plates (MIC determination): − −
[5]; [18]
  growth of bacteria (MBC determination): − −
  growth of bacteria on duplicate plates (MIC determination): − −
[5]
  MBC: 0.63%
  MIC: 0.08%
[6]; [9]
  growth of bacteria on duplicate plates (MIC determination): + +
[6]; [10]
  growth of bacteria on duplicate plates (MIC determination): + +
[6]; [11]
  growth of bacteria on duplicate plates (MIC determination): + +
[6]; [12]
  growth of bacteria on duplicate plates (MIC determination): + +
[6]; [13]
  growth of bacteria on duplicate plates (MIC determination): + +
[6]; [14]
  growth of bacteria on duplicate plates (MIC determination): + +
[6]; [15]
  growth of bacteria on duplicate plates (MIC determination): + +
[6]; [16]
  growth of bacteria on duplicate plates (MIC determination): + +
[6]; [17]
  growth of bacteria (MBC determination): + +
  growth of bacteria on duplicate plates (MIC determination): − −
[6]; [18]
  growth of bacteria (MBC determination): + +
  growth of bacteria on duplicate plates (MIC determination): − −
[6]
  MBC: >1.56%
  MIC: 0.63%
[7]; [9]
  growth of bacteria on duplicate plates (MIC determination): + +
[7]; [10]
  growth of bacteria on duplicate plates (MIC determination): + +
[7]; [11]
  growth of bacteria on duplicate plates (MIC determination): + +
[7]; [12]
  growth of bacteria on duplicate plates (MIC determination): + +
[7]; [13]
  growth of bacteria on duplicate plates (MIC determination): + +
[7]; [14]
  growth of bacteria on duplicate plates (MIC determination): + −
[7]; [15]
  growth of bacteria (MBC determination): + +
  growth of bacteria on duplicate plates (MIC determination): − −
[7]; [16]
  growth of bacteria (MBC determination): + +
  growth of bacteria on duplicate plates (MIC determination): − −
[7]; [17]
  growth of bacteria (MBC determination): + +
  growth of bacteria on duplicate plates (MIC determination): − −
[7]; [18]
  growth of bacteria (MBC determination): − −
  growth of bacteria on duplicate plates (MIC determination): − −
[7]
  MBC: 1.56%
  MIC: 0.16%
[8]; [9]
  growth of bacteria on duplicate plates (MIC determination): + +
[8]; [10]
  growth of bacteria on duplicate plates (MIC determination): + +
[8]; [11]
  growth of bacteria on duplicate plates (MIC determination): + +
[8]; [12]
  growth of bacteria on duplicate plates (MIC determination): + +
[8]; [13]
  growth of bacteria on duplicate plates (MIC determination): + +
[8]; [14]
  growth of bacteria on duplicate plates (MIC determination): + +
[8]; [15]
  growth of bacteria (MBC determination): + +
  growth of bacteria on duplicate plates (MIC determination): − −
[8]; [16]
  growth of bacteria (MBC determination): + +
  growth of bacteria on duplicate plates (MIC determination): − −
[8]; [17]
  growth of bacteria (MBC determination): + +
  growth of bacteria on duplicate plates (MIC determination): − −
[8]; [18]
  growth of bacteria (MBC determination): − −
  growth of bacteria on duplicate plates (MIC determination): − −
[8]
  MBC: 1.56%
  MIC: 0.16%

— US20140228440A1, “1-AMINO-ALKYLCYCLOHEXANE DERIVATIVES FOR THE TREATMENT OF INFLAMMATORY SKIN DISEASES” (MERZ PHARMA GmbH & CO. KGaA, priority 2008, published 2014)
